From patent US10966995B2, “Use of secoisolariciresinol diglucosides (SDGS) and related compounds for protection against radiation and chemical damage” (THE TRUSTEES OF THE UNIVERSITY OF PENNSYLVANIA, priority 2014, dated 2021) come the findings set out here.

The test system of data set [1] is murine primary lung cells (epithelial cells, endothelial cells and fibroblasts). Nature of the data set: Clonogenic survival of irradiated primary lung cells. In kind it is cell-based, mouse. The method, then: (§1) Fibroblasts and endothelial cells were isolated from C57/bl6 mouse. For fibroblast isolation, mouse lungs were harvested, minced, and incubated with dispase (2 mg/ml) for 45 minutes. Pieces were plated out and fibroblasts were cultured as described previously and used between passages 3 and 10. Pulmonary microvascular endothelial cells (PMVEC) were isolated from murine lungs as described previously. Briefly, freshly harvested mouse lungs were treated with collagenase followed by isolation of cells by adherence to magnetic beads coated with mAb to platelet endothelial cell adhesion molecule (PECAM). Epithelial cells (C10) cells were originally derived from a normal BALB/c mouse lung explant and are non-tumorigenic, contact-inhibited, and have alveolar type 2 cell features at early passage.
Exponentially growing cells were plated as single cells and incubated overnight. Cells were treated with various doses of the lignan SDG (10-50 μM) 6 h prior to irradiation (2, 4, 6 and 8 Gy). Lignan dose was selected based on animal studies to be within the physiological levels reached in the blood circulation when 10% Flaxseed is ingested. Cells were irradiated with a Mark 1 cesium (Cs-137) irradiator (J. L. Shepherd, San Fernando, Calif.) at a dose rate of 1.7 Gy/min Colonies were stained and counted 10 to 15 days after irradiation and surviving fraction was calculated.

A short description of data set [2]: Tolerability of SDG given twice daily for 7 days. In kind it is in vivo. The settings on record: 100 mg/Kg given twice daily for 7 days.
The subject of another data set is plasmid DNA. The data set is described as follows: Hypochlorite-induced damage to plasmid DNA. It is filed as biochemical. Conditions: SDG 25 μM; 4.5 mM HOCl. The method, then:
Calf thymus or plasmid DNA was incubated with hypochlorite for 2 hrs at 37° C. DNA samples were subjected to agarose (1%) gel electrophoresis and analyzed.

Data set [3] has as its system mouse peritoneal macrophages. Nature of the data set: Asbestos-exposed peritoneal macrophages: oxidative/nitrosative stress and cytokine secretion. It is filed as cell-based. Conditions: 20 μg/cm^2 asbestos; 25 and 50 μM SDG 3-8 hours post exposure; p<0.05. The method, then:
To test the hypothesis that the flaxseed lignan SDG will decrease asbestos-induced inflammation, and oxidative and nitrosative stress, mouse peritoneal macrophages were exposed to varying concentrations of crocidolite asbestos fibers ([…]). At variable times post asbestos exposure (3, 4, 6, and 8 hours), cells were incubated with SDG (50 μM) and supernatants collected 24 hours later to detect inflammatory cytokine secretion and nitrosative/oxidative stress (FIG. 49).
(§2) SDG given to macrophages several hours post exposure to asbestos decreases oxidative stress (FIGS. 52A-52B). Female C57/Bl6 mice were injected with 2 mL of thioglycollate and peritoneal macrophages harvested after 3 days. 2 million cells per well were plated in a 6 well plate and exposed to 20 μg/cm^2 asbestos. Cells were treated with 25 or 50 μM SDG (synthetic SDG) 3, 4, 6, or 8 hours post-asbestos exposure. Cells were harvested 24 hours post-asbestos exposure. Analysis performed on frozen supernatant samples.
as §2, with “Given” for “given”, “Macrophages Several Hours Post Exposure to Asbestos Decreases Nitrosative Stress (FIGS. 53A-53B). To evaluate of SDG in blunting nitrosative stress in cells” for “macrophages several hours”, “post” for “post exposure to”, “exposure, female” for “decreases oxidative stress (FIGS. 52A-52B). Female”
SDG Given to Macrophages Several Hours Post Exposure to Asbestos Decreases inflammatory cytokine secretion (IL-1β) (FIGS. 54A-54B). To evaluate SDG in blunting inflammatory cytokine secretion (IL-1β) in cells post asbestos exposure, female C57/Bl6 mice were injected with 2 mL of thioglycollate and peritoneal macrophages harvested after 3 days 2 million cells per well were plated in a 6 well plate and exposed to 20 μg/cm^2 asbestos. Cells were treated with 25 or 50 μM SDG (synthetic SDG) 3, 4, 6, or 8 hours post-asbestos exposure. Cells were harvested 24 hours post-asbestos exposure. Analysis performed on fresh supernatant samples.
SDG Given to Macrophages Several Hours Post Exposure to Asbestos Decreases inflammatory cytokine secretion (TNF-α) (FIGS. 55A-55B). To evaluate SDG in blunting inflammatory cytokine secretion (TNF-α) in cells post asbestos exposure, female C57/Bl6 mice were injected with 2 mL of thioglycollate and peritoneal macrophages harvested after 3 days. 2 million cells per well were plated in a 6 well plate and exposed to 20 μg/cm^2 asbestos. Cells were treated with 25 or 50 μM SDG (synthetic SDG) 3, 4, 6, or 8 hours post-asbestos exposure. […]

In data set [4] the test system is murine primary lung fibroblasts. The data set is described as follows: Morphological detection of apoptotic cells, fibroblasts. The settings on record: SDG pre-treatment; irradiated. It is filed as cell-based, mouse. The method, then:
as §1, with “Epithelial cells (C10) cells were originally derived from a normal BALB/c mouse lung explant and are non-tumorigenic, contact-inhibited, and have alveolar type 2 cell features at early passage.” left out
(§3) Apoptotic cells are morphologically characterized by condensation of nucleus and cytoplasm, membrane blebbing, cell shrinkage, and breakdown of nuclear DNA, first in large segments and subsequently in nucleosomal fragments and finally formation of well-enclosed apoptotic bodies. Percentage of cells undergoing apoptosis was determined microscopically from the slides used for micronuclei detection (cytogenetic damage). At least, 500 cells were counted for each experiment (experiment done twice) and percent apoptotic cells were determined as follows: % Cell Death=Na/Nt×100, where Na is the number of cells with apoptotic bodies and Nt is the total number of cells analyzed. Gene Expression Analysis by Quantitative Real Time PCR (qPCR)

Data set [5] in a line: Hypochlorite scavenging with APF/HPF fluorescent probes (sodium hypochlorite). Conditions: commercially available SDG; FIG. 15B. On the procedure: The fluorescence of ROS probes APF and HPF in PBS was measured at excitation/emission at 490 nm/515 nm in presence of hypochlorite or after γ-radiation exposure. Data is expressed as relative fluorescence units (RFU).
Data set [6] concerns murine primary lung endothelial cells. Nature of the data set: Morphological detection of apoptotic cells, endothelial cells. It is filed as cell-based, mouse. The settings on record: SDG 50 μM pre-treatment; irradiated; 24 h; IR alone 15.1%. The method, then:
as §1, with “Epithelial cells (C10) cells were originally derived from a normal BALB/c mouse lung explant and are non-tumorigenic, contact-inhibited, and have alveolar type 2 cell features at early passage.” left out
as §3

Take `COc1cc(C[C@@H](CO[C@@H]2O[C@H](CO)[C@@H](O)[C@H](O)[C@H]2O)[C@H](CO[C@@H]2O[C@H](CO)[C@@H](O)[C@H](O)[C@H]2O)Cc2ccc(O)c(OC)c2)ccc1O` [SDG, secoisolariciresinol diglucoside]: the “Colony forming ability, compound alone” value in data set [1] (SDG 10-50 μM alone, all three cell types, vs untreated control) is “did not elicit any adverse effect”. Also, the Surviving fraction result in data set [1] (SDG prior to irradiation, epithelial and endothelial cells (FIGS. 7A, 7B)) was “enhanced significantly”. The “SDG concentration giving maximum protection against radiation-induced loss in clonogenicity” value in data set [1] (fibroblasts, 6 h pre-treatment) was 50 µM. In data set [2], the Intolerance / toxicity entry was “neither intolerance nor toxicity”. For the same compound, in the data set with plasmid DNA, the “Open coiled (OC) form of plasmid DNA” value is 18.6%±9.4 and the “Super coiled (SC) form of plasmid DNA” value is listed as 81.3%±9.4. In addition, in data set [3], the IL-1β levels entry is listed as “significantly decreased”; the “Malondialdehyde (MDA) levels, lipid peroxidation” value is “significantly decreased”; the “Nitrite, marker for nitrosative stress” value is “significantly decreased”; the TNF-α levels entry is on record as “significantly decreased”. Also, the Extent of apoptosis entry in data set [4] is “significantly reduced”. For the same compound, the “ClO^− scavenging” value in data set [5] is “decreased ClO^− dose-dependently”. Further, in data set [6], the Apoptotic cells is on record as 10.71%±1.45.
